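48-hour exposure; five concentrations; linearly interpolated endpoints. TGI marks complete inhibition of growth.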
Legend:
Assay in all cases: DTP human tumour cell line panel, 48 h
HCT-15 colon = system: HCT-15 colon
MDA-MB-231 breast = system: MDA-MB-231 breast
CAKI-1 renal = system: CAKI-1 renal
ACHN renal = system: ACHN renal
LOX IMVI melanoma = system: LOX IMVI melanoma
UO-31 renal = system: UO-31 renal
MDA-MB-435 = system: MDA-MB-435
SK-MEL-2 melanoma = system: SK-MEL-2 melanoma
NCI-H460 lung = system: NCI-H460 lung
M14 melanoma = system: M14 melanoma
A549 NSCLC = system: A549 NSCLC
786-0 renal = system: 786-0 renal
SN12C renal = system: SN12C renal
SF-295 CNS = system: SF-295 CNS
SNB-19 CNS = system: SNB-19 CNS
NCI/ADR-RES ovarian = system: NCI/ADR-RES ovarian
SF-539 CNS = system: SF-539 CNS
DU-145 prostate = system: DU-145 prostate
HT29 colon = system: HT29 colon
U251 CNS = system: U251 CNS
T-47D breast = system: T-47D breast
COLO 205 colon = system: COLO 205 colon
OVCAR-8 ovarian = system: OVCAR-8 ovarian
A498 renal = system: A498 renal
HOP-92 NSCLC = system: HOP-92 NSCLC
HOP-62 NSCLC = system: HOP-62 NSCLC
MDA-N = system: MDA-N
SF-268 CNS = system: SF-268 CNS
BT-549 breast = system: BT-549 breast
EKVX NSCLC = system: EKVX NSCLC
IGROV1 ovarian = system: IGROV1 ovarian
SNB-75 CNS = system: SNB-75 CNS
TK-10 renal = system: TK-10 renal
PC-3 prostate = system: PC-3 prostate
SK-MEL-28 melanoma = system: SK-MEL-28 melanoma
HCT-116 colon = system: HCT-116 colon
KM12 colon = system: KM12 colon
NCI-H226 lung = system: NCI-H226 lung
UACC-62 melanoma = system: UACC-62 melanoma
CCRF-CEM leukemia = system: CCRF-CEM leukemia
SW-620 colon = system: SW-620 colon
OVCAR-5 ovarian = system: OVCAR-5 ovarian
HS 578T breast = system: HS 578T breast
NCI-H522 lung = system: NCI-H522 lung
SK-OV-3 ovarian = system: SK-OV-3 ovarian
MOLT-4 leukemia = system: MOLT-4 leukemia
OVCAR-3 ovarian = system: OVCAR-3 ovarian
MCF7 breast = system: MCF7 breast
NCI-H23 lung = system: NCI-H23 lung
UACC-257 melanoma = system: UACC-257 melanoma
SK-MEL-5 melanoma = system: SK-MEL-5 melanoma
HL-60(TB) leukemia = system: HL-60(TB) leukemia
HCC-2998 colon = system: HCC-2998 colon
SR leukemia = system: SR leukemia
OVCAR-4 ovarian = system: OVCAR-4 ovarian
RPMI-8226 leukemia = system: RPMI-8226 leukemia

CCOC(=O)c1cc(=O)c2cccc3c2n1CCS3
TGI (HCT-15 colon): > 100 µM | TGI (MDA-MB-231 breast): > 100 µM | TGI (CAKI-1 renal): > 100 µM | TGI (ACHN renal): > 100 µM | TGI (LOX IMVI melanoma): > 100 µM | TGI (UO-31 renal): > 100 µM | TGI (MDA-MB-435): > 100 µM | TGI (SK-MEL-2 melanoma): > 100 µM | TGI (NCI-H460 lung): > 100 µM | TGI (M14 melanoma): > 100 µM | TGI (A549 NSCLC): > 100 µM | TGI (786-0 renal): > 100 µM | TGI (SN12C renal): > 100 µM | TGI (SF-295 CNS): > 100 µM | TGI (SNB-19 CNS): > 100 µM | TGI (NCI/ADR-RES ovarian): > 100 µM | TGI (SF-539 CNS): > 100 µM | TGI (DU-145 prostate): > 100 µM | TGI (HT29 colon): > 100 µM | TGI (U251 CNS): > 100 µM | TGI (T-47D breast): > 100 µM | TGI (COLO 205 colon): > 100 µM | TGI (OVCAR-8 ovarian): > 100 µM | TGI (A498 renal): > 100 µM | TGI (HOP-92 NSCLC): > 100 µM | TGI (HOP-62 NSCLC): > 100 µM | TGI (MDA-N): > 100 µM | TGI (SF-268 CNS): > 100 µM | TGI (BT-549 breast): > 100 µM | TGI (EKVX NSCLC): > 100 µM | TGI (IGROV1 ovarian): > 100 µM | TGI (SNB-75 CNS): > 100 µM | TGI (TK-10 renal): > 100 µM | TGI (PC-3 prostate): > 100 µM | TGI (SK-MEL-28 melanoma): > 100 µM | TGI (HCT-116 colon): > 100 µM | TGI (KM12 colon): > 100 µM | TGI (NCI-H226 lung): > 100 µM | TGI (UACC-62 melanoma): > 100 µM | TGI (CCRF-CEM leukemia): > 100 µM | TGI (SW-620 colon): > 100 µM | TGI (OVCAR-5 ovarian): > 100 µM | TGI (HS 578T breast): > 100 µM | TGI (NCI-H522 lung): > 100 µM | TGI (SK-OV-3 ovarian): > 100 µM | TGI (MOLT-4 leukemia): > 100 µM | TGI (OVCAR-3 ovarian): > 100 µM | TGI (MCF7 breast): > 100 µM | TGI (NCI-H23 lung): > 100 µM | TGI (UACC-257 melanoma): > 100 µM | TGI (SK-MEL-5 melanoma): > 100 µM | TGI (HL-60(TB) leukemia): > 100 µM

COc1c(Sc2c(SCSc3cnc4ccccc4c3Sc3cnc4ccccc4c3OC)cnc3ccccc23)cnc2ccccc12
TGI (HCT-15 colon): > 100 µM | TGI (MDA-MB-231 breast): > 100 µM | TGI (CAKI-1 renal): > 100 µM | TGI (ACHN renal): > 100 µM | TGI (HCC-2998 colon): > 100 µM | TGI (LOX IMVI melanoma): > 100 µM | TGI (UO-31 renal): > 100 µM | TGI (MDA-MB-435): > 100 µM | TGI (SK-MEL-2 melanoma): > 100 µM | TGI (NCI-H460 lung): > 100 µM | TGI (M14 melanoma): > 100 µM | TGI (A549 NSCLC): > 100 µM | TGI (786-0 renal): > 100 µM | TGI (SN12C renal): > 100 µM | TGI (SF-295 CNS): > 100 µM | TGI (SNB-19 CNS): 77.3 µM | TGI (NCI/ADR-RES ovarian): > 100 µM | TGI (SF-539 CNS): > 100 µM | TGI (DU-145 prostate): > 100 µM | TGI (HT29 colon): > 100 µM | TGI (U251 CNS): > 100 µM | TGI (T-47D breast): > 100 µM | TGI (COLO 205 colon): > 100 µM | TGI (OVCAR-8 ovarian): > 100 µM | TGI (SR leukemia): 56.7 µM | TGI (HOP-92 NSCLC): 84 µM | TGI (HOP-62 NSCLC): > 100 µM | TGI (MDA-N): > 100 µM | TGI (SF-268 CNS): > 100 µM | TGI (BT-549 breast): > 100 µM | TGI (EKVX NSCLC): > 100 µM | TGI (IGROV1 ovarian): > 100 µM | TGI (SNB-75 CNS): > 100 µM | TGI (TK-10 renal): > 100 µM | TGI (PC-3 prostate): > 100 µM | TGI (OVCAR-4 ovarian): > 100 µM | TGI (SK-MEL-28 melanoma): > 100 µM | TGI (HCT-116 colon): > 100 µM | TGI (KM12 colon): > 100 µM | TGI (RPMI-8226 leukemia): > 100 µM | TGI (UACC-62 melanoma): > 100 µM | TGI (CCRF-CEM leukemia): > 100 µM | TGI (SW-620 colon): > 100 µM | TGI (OVCAR-5 ovarian): > 100 µM | TGI (HS 578T breast): > 100 µM | TGI (NCI-H522 lung): > 100 µM | TGI (MOLT-4 leukemia): > 100 µM | TGI (OVCAR-3 ovarian): > 100 µM | TGI (NCI-H23 lung): > 100 µM | TGI (UACC-257 melanoma): > 100 µM | TGI (SK-MEL-5 melanoma): > 100 µM | TGI (HL-60(TB) leukemia): 26.3 µM

From PubChem BioAssay (NCI)
